Test results taken from ChEMBL document CHEMBL3856212, “Synthesis, anti-proliferative and genotoxicity studies of 6-chloro-5-(2-substituted-ethyl)-1,3-dihydro-2H-indol-2-ones and 6-chloro-5-(2-chloroethyl)-3-(alkyl/ary-2-ylidene)indolin-2-ones” (Eur J Med Chem, 2016).

Tests used:
[1] = Cytotoxicity against human NCI-H522 cells assessed as growth inhibition after 48 hrs by SRB assay; type: functional; settings: NCI-H522, 48 h
[2] = Cytotoxicity against human Caki1 cells assessed as growth inhibition after 48 hrs by SRB assay; type: functional; settings: CAKI-1, 48 h
[3] = Induction of apoptosis in mouse EAC cells at 375 uM after 24 hrs by acridine orange dye-based fluorescence microscopy (reference value: 0.66 +/- 0.33%); type: cell-based; settings: ehrlich
[4] = Cytotoxicity against human SW620 cells assessed as growth inhibition after 48 hrs by SRB assay; type: functional; settings: SW-620, 48 h
[5] = Cytotoxicity against human 786-0 cells assessed as growth inhibition after 48 hrs by SRB assay; type: functional; settings: 786-0, 48 h
[6] = Cytotoxicity against human PC3 cells assessed as growth inhibition after 48 hrs by SRB assay; type: functional; settings: PC-3, 48 h
[7] = Cytotoxicity against human NCI-H322M cells assessed as assessed as growth inhibition at 10^-5 M after 48 hrs by SRB assay relative to control; type: functional; settings: read-out: GI
[8] = Cytotoxicity against human HCT116 cells assessed as growth inhibition after 48 hrs by SRB assay; type: functional; settings: HCT-116, 48 h
[9] = Cytotoxicity against human A549 cells assessed as assessed as growth inhibition at 10^-5 M after 48 hrs by SRB assay relative to control; type: functional; settings: A549, 48 h, read-out: GI
[10] = Cytotoxicity against human SKOV3 cells assessed as assessed as growth inhibition at 10^-5 M after 48 hrs by SRB assay relative to control; type: functional; settings: SK-OV-3, 48 h, read-out: GI
[11] = Cytotoxicity against human MDA-MB-435 cells assessed as assessed as growth inhibition at 10^-5 M after 48 hrs by SRB assay relative to control; type: functional; settings: MDA-MB-435, 48 h, read-out: GI
[12] = Cytotoxicity against human K562 cells assessed as growth inhibition after 48 hrs by SRB assay; type: functional; settings: K562, 48 h
[13] = Cytotoxicity against human SR cells assessed as growth inhibition after 48 hrs by SRB assay; type: functional
[14] = Cytotoxicity against human SK-MEL-5 cells assessed as assessed as growth inhibition at 10^-5 M after 48 hrs by SRB assay relative to control; type: functional; settings: SK-MEL-5, 48 h, read-out: GI
[15] = Cytotoxicity against human MDA-MB-435 cells assessed as growth inhibition after 48 hrs by SRB assay; type: functional; settings: MDA-MB-435, 48 h, read-out: LD50 (the source's name)
[16] = Cytotoxicity against human COLO205 cells assessed as growth inhibition after 48 hrs by SRB assay; type: functional; settings: COLO 205, 48 h
[17] = Cytotoxicity against human SF268 cells assessed as assessed as growth inhibition at 10^-5 M after 48 hrs by SRB assay relative to control; type: functional; settings: SF-268, 48 h, read-out: GI
[18] = Cytotoxicity against human NCI-ADR-RES cells assessed as growth inhibition after 48 hrs by SRB assay; type: functional
[19] = Cytotoxicity against human HCT15 cells assessed as assessed as growth inhibition at 10^-5 M after 48 hrs by SRB assay relative to control; type: functional; settings: HCT-15, 48 h, read-out: GI
[20] = Cytotoxicity against human HOP62 cells assessed as growth inhibition after 48 hrs by SRB assay; type: functional; settings: HOP-62, 48 h
[21] = Cytotoxicity against human MCF7 cells assessed as assessed as growth inhibition at 10^-5 M after 48 hrs by SRB assay relative to control; type: functional; settings: MCF7, 48 h, read-out: GI
[22] = Cytotoxicity against human ACHN cells assessed as assessed as growth inhibition at 10^-5 M after 48 hrs by SRB assay relative to control; type: functional; settings: read-out: GI
[23] = Cytotoxicity against human SN12C cells assessed as growth inhibition after 48 hrs by SRB assay; type: functional
[24] = Cytotoxicity against human UACC62 cells assessed as growth inhibition after 48 hrs by SRB assay; type: functional; settings: UACC-62, 48 h
[25] = Cytotoxicity against human NCI-H522 cells assessed as assessed as growth inhibition at 10^-5 M after 48 hrs by SRB assay relative to control; type: functional; settings: NCI-H522, 48 h, read-out: GI
[26] = Cytotoxicity against human KM12 cells assessed as growth inhibition after 48 hrs by SRB assay; type: functional; settings: KM12, 48 h
[27] = Cytotoxicity against human MDA-MB-468 cells assessed as assessed as growth inhibition at 10^-5 M after 48 hrs by SRB assay relative to control; type: functional; settings: MDA-MB-468, 48 h, read-out: GI
[28] = Cytotoxicity against human PC3 cells assessed as assessed as growth inhibition at 10^-5 M after 48 hrs by SRB assay relative to control; type: functional; settings: PC-3, 48 h, read-out: GI
[29] = Cytotoxicity against human SF295 cells assessed as assessed as growth inhibition at 10^-5 M after 48 hrs by SRB assay relative to control; type: functional; settings: SF-295, 48 h, read-out: GI
[30] = Cytotoxicity against human T47D cells assessed as assessed as growth inhibition at 10^-5 M after 48 hrs by SRB assay relative to control; type: functional; settings: read-out: GI
[31] = Cytotoxicity against human TK10 cells assessed as assessed as growth inhibition at 10^-5 M after 48 hrs by SRB assay relative to control; type: functional; settings: TK-10, 48 h, read-out: GI
[32] = Cytotoxicity against human M14 cells assessed as assessed as growth inhibition at 10^-5 M after 48 hrs by SRB assay relative to control; type: functional; settings: M14, 48 h, read-out: GI
[33] = Cytotoxicity against human IGROV1 cells assessed as assessed as growth inhibition at 10^-5 M after 48 hrs by SRB assay relative to control; type: functional; settings: IGROV-1, 48 h, read-out: GI
[34] = Cytotoxicity against human M14 cells assessed as growth inhibition after 48 hrs by SRB assay; type: functional; settings: M14, 48 h
[35] = read-out: LD50 (the source's name)

With `O=C1Cc2cc(CCn3ccnc3)c(Cl)cc2N1` the GI50 [1] was 4740 nM, the TGI [1] was 4790 nM and the CC50 [1, 35] was > 1000 nM. For the same compound, the GI50 [2] was 6320 nM, the TGI [2] was > 1000 nM and the CC50 [2, 35] was > 1000 nM. For the same compound, the Activity [3] was 0.66%, the GI50 [4] was 5020 nM and the TGI [4] was > 1000 nM. For the same compound, the CC50 [4, 35] was > 1000 nM, the GI50 [5] was 1000 nM and the TGI [5] was > 1000 nM. The CC50 [5, 35] was > 1000 nM, the GI50 [6] was 3560 nM and the TGI [6] was > 1000 nM. For the same compound, the CC50 [6, 35] was > 1000 nM, the inhibition of growth at 10 µM [7] was 9.68% and the GI50 [8] was 1310 nM. The TGI [8] was > 1000 nM, the CC50 [8, 35] was > 1000 nM and the inhibition of growth at 10 µM [9] was 33.3%. The inhibition of growth at 10 µM [10] was 21.4%, the inhibition of growth at 10 µM [11] was 72% and the GI50 [12] was 8260 nM. The TGI [12] was > 1000 nM, the CC50 [12, 35] was > 1000 nM and the GI50 [13] was 9240 nM. For the same compound, the TGI [13] was > 1000 nM, the CC50 [13, 35] was > 1000 nM and the inhibition of growth at 10 µM [14] was 67.8%. The CC50 [15] was > 1000 nM, the GI50 [16] was 1510 nM and the TGI [16] was > 1000 nM. The CC50 [16, 35] was > 1000 nM, the inhibition of growth at 10 µM [17] was 27.6% and the GI50 [18] was 5460 nM. The TGI [18] was > 1000 nM, the CC50 [18, 35] was > 1000 nM and the inhibition of growth at 10 µM [19] was 32.8%. For the same compound, the GI50 [20] was 3320 nM, the TGI [20] was > 1000 nM and the CC50 [20, 35] was > 1000 nM. It also gave an inhibition of growth at 10 µM [21] of 77.1%, an inhibition of growth at 10 µM [22] of 21.7% and a GI50 [23] of 1650 nM. For the same compound, the TGI [23] was > 1000 nM, the CC50 [23, 35] was > 1000 nM and the GI50 [24] was 7680 nM. The TGI [24] was > 1000 nM, the CC50 [24, 35] was > 1000 nM and the inhibition of growth at 10 µM [25] was 55.2%. The GI50 [26] was 3580 nM, the TGI [26] was 9840 nM and the CC50 [26, 35] was > 1000 nM. For the same compound, the inhibition of growth at 10 µM [27] was 69.2%, the inhibition of growth at 10 µM [28] was 11.7% and the inhibition of growth at 10 µM [29] was 36.6%. For the same compound, the inhibition of growth at 10 µM [30] was 5.51%, the inhibition of growth at 10 µM [31] was -23.4% and the inhibition of growth at 10 µM [32] was 76.3%. The inhibition of growth at 10 µM [33] was 13.3%, the GI50 [34] was 3460 nM and the TGI [34] was 3980 nM. The CC50 [34, 35] was > 1000 nM.
